Data reported in PMC3678512, “Synthesis and physicochemical characterization of novel phenotypic probes targeting the nuclear factor-kappa B signaling pathway” (Beilstein Journal of Organic Chemistry, 2013).
In brackets after ≈: the same amount, converted by molar mass. Like-named read-outs stand apart in the source and are kept apart here.

What was measured:
PKCθ = system: PKCθ; design: method as in PMID 20481485, PMID 20153655; conditions: 4 at concentrations up to 8 μM; cited from earlier work
IKKβ = system: IKKβ; design: method as in PMID 20481485, PMID 20153655; conditions: 4 at concentrations up to 8 μM; cited from earlier work
353 kinases = experiment: KINOMEscan (DiscoveRx) selectivity profiling, panel; assay type: binding; conditions: 10 uM; out of the 353 kinases surveyed
Source text: (§1) This probe was discovered after two separate screening campaigns totaling ~110,000 compounds.

TLK1 = molecular target: T1, TLK1 (Homo sapiens, UniProt Q9UKI8); experiment: KINOMEscan (DiscoveRx) selectivity profiling, TLK1; assay type: binding
T1 construct: purchased DiscoveRx
T1 sequence (Q9UKI8 1-766): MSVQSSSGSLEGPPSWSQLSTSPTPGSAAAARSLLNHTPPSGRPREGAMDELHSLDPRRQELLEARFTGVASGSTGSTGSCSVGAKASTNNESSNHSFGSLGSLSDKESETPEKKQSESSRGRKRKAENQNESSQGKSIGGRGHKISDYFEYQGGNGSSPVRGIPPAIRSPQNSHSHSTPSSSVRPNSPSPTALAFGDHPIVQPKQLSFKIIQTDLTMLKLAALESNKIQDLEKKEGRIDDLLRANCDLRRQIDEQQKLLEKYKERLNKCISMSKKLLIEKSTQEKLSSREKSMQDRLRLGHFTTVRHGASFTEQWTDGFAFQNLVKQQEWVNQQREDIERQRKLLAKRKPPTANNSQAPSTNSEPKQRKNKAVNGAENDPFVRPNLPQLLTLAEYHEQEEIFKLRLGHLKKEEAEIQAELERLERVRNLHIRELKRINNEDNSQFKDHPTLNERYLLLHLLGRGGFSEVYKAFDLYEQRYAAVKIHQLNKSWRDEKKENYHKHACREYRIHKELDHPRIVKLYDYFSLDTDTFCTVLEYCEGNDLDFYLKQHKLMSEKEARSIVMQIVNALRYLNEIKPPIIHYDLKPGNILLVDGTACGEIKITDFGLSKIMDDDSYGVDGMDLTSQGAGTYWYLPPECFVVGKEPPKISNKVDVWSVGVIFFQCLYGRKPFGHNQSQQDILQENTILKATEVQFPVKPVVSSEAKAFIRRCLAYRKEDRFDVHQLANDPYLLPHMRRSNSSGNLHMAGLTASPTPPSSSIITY
Source text: as §1

Raf = experiment: KINOMEscan (DiscoveRx) selectivity profiling, Raf; assay type: binding; conditions: 10 uM
Source text: as §1

JAK2 = molecular target: T2, JAK2 (Homo sapiens, UniProt O60674); experiment: KINOMEscan (DiscoveRx) selectivity profiling, JAK2; assay type: binding
T2 construct: purchased DiscoveRx
Source text: as §1

[1] = system: NF-κB activation in HEK 293T cells; experiment: NF-κB reporter gene assay in HEK 293T cells; assay type: cell-based, human; conditions: for Selectivity over NF-κB activation in HEK 293T cells: relative to 697 pre-B cell line potency
Source text: (§2) Phenotypic screening for noncanonical NF-κB pathway selective inhibitors of IL-8 production in HEK 293, HEK 293T (ML029) and 697 pre-B cells (ML236 and ML237): Most pathways for NF-κB activation converge on the IκB kinases (IKKs), and more than nine signaling routes have been identified. While IKKs therefore represent attractive targets for drug discovery programs, the selectivity envisioned for an acceptable therapeutic index has remained elusive as inhibitors of IKKs indiscriminately suppress all known NF-κB activation pathways. Within this project, new probes were sought that were not active via the currently known receptor-driven pathways and IκB kinases, but attenuated NF-κB transcriptional activity as measured by a luciferase-based reporter gene assay with validation using a panel of known receptor and kinase-based counter screens.
(§3) Therefore, an HTS campaign was initiated to identify compounds active in these specific cell subtypes by using the established HTS NF-κB reporter gene assay format. This included screening of a larger (~330,600 compound) MLSMR collection to ensure identification of additional chemical scaffolds not previously available. From this campaign two new cell-active NF-κB inhibitors were derived that were both selective against the NF-κB pathway induced by known PKC activators (phorbol myristic acetate (PMA)/ionomycin) and were selective toward the 697 pre-B cell line. It is interesting to note that no compounds meeting probe selectivity criteria were identified within the T cell (HEK 293T) specific assay. The first oxadiazole-based probe ML236 (8) was potent (0.035 μM) in the 697 pre-B cell line and >400-fold selective over both the NF-κB activation in HEK 293T cells and against TNFα-mediated NF-κB activation. In comparison, the second oxazole-based probe 12 is also potent (0.2 μM) in the 697 pre-B cell line and >400-fold selective over both the NF-κB activation in HEK 293T cells and against TNFα mediated NF-κB activation as measured in our reporter gene assay format.

[2] = system: NF-κB activation in 697 pre-B cell line; experiment: NF-κB reporter gene assay in 697 pre-B cells (PMA/ionomycin induced); assay type: cell-based; conditions: read-out: Potency in 697 pre-B cell line (NF-κB reporter)
Source text: as §2, §3

Aqueous solubility = assay type: physicochemical; conditions: for Solubility (in words): across pH 5 to 7.4
Method: (§4) The probes were evaluated using known in vitro ADME/T assays to understand their overall pharmacological properties (Table 2). […] The PAMPA (parallel artificial membrane permeability assay) assay is used as an in vitro model of passive, transcellular permeability. An artificial membrane immobilized on a filter is placed between a donor and acceptor compartment. […] It is not yet known whether it represents a species specific CPY450 inhibitor.

[3] = PAMPA (parallel artificial membrane permeability assay); assay type: in vitro ADME; conditions: for PAMPA Pe, donor pH 5.0: donor pH 5.0, acceptor pH 7.4, compound at 50 μM; for PAMPA Pe, donor pH 6.2: donor pH 6.2, acceptor pH 7.4, compound at 50 μM; for PAMPA Pe, donor pH 7.4: donor pH 7.4, acceptor pH 7.4, compound at 50 μM
Method: as §4

[4] = Hepatic microsome stability, human; assay type: in vitro ADME; conditions: for Hepatic microsome stability, human (% remaining): compound at 1 μM, 60 min
Method: as §4

[5] = Hepatic microsome stability, mouse; assay type: in vitro ADME; conditions: compound at 1 μM, 60 min
Method: as §4

[6] = Hepatic toxicity in immortalized human hepatocytes; assay type: cell-based; conditions: Fa2N-4 immortalized human hepatocytes, read-out: Hepatic toxicity LC50
Method: as §4

[7] = system: NF-κB transcriptional activity in HEK 293 cells; design: method as in PMID 20481485; conditions: NF-κB reporter, read-out: IC50 in the HEK 293 cell assay; cited from earlier work
PKCβ = system: PKCβ; design: method as in PMID 20481485, PMID 20153655; conditions: 4 at concentrations up to 8 μM; cited from earlier work
[8] = system: NOD1 (γ-tri-DAP) dependent IL-8 secretion; experiment: NOD1 (γ-tri-DAP) dependent IL-8 secretion; assay type: cell-based
[9] = system: NOD2-dependent IL-8 secretion in MCF-7 cells; experiment: NOD2-dependent IL-8 secretion in MCF-7 cells; assay type: cell-based
[10] = system: TNF-α-dependent IL-8 secretion in MCF-7 cells; experiment: TNF-α-dependent IL-8 secretion in MCF-7 cells; assay type: cell-based
[11] = system: TNFα-mediated NF-κB activation; experiment: TNFα-mediated NF-κB activation reporter gene assay; assay type: cell-based; conditions: relative to 697 pre-B cell line potency
Source text: as §3

[12] = aqueous medium, pH 6.2, aqueous buffer, read-out: Aqueous solubility pH 6.2
[13] = pH 5.0, read-out: Aqueous solubility pH 5.0
[14] = pH 7.4, read-out: Aqueous solubility pH 7.4
[15] = aqueous medium, aqueous buffer, pH 5.0, read-out: Aqueous solubility pH 5.0
[16] = aqueous medium, pH 7.4, aqueous buffer, read-out: Aqueous solubility pH 7.4

T2 sequence (O60674 whole entry): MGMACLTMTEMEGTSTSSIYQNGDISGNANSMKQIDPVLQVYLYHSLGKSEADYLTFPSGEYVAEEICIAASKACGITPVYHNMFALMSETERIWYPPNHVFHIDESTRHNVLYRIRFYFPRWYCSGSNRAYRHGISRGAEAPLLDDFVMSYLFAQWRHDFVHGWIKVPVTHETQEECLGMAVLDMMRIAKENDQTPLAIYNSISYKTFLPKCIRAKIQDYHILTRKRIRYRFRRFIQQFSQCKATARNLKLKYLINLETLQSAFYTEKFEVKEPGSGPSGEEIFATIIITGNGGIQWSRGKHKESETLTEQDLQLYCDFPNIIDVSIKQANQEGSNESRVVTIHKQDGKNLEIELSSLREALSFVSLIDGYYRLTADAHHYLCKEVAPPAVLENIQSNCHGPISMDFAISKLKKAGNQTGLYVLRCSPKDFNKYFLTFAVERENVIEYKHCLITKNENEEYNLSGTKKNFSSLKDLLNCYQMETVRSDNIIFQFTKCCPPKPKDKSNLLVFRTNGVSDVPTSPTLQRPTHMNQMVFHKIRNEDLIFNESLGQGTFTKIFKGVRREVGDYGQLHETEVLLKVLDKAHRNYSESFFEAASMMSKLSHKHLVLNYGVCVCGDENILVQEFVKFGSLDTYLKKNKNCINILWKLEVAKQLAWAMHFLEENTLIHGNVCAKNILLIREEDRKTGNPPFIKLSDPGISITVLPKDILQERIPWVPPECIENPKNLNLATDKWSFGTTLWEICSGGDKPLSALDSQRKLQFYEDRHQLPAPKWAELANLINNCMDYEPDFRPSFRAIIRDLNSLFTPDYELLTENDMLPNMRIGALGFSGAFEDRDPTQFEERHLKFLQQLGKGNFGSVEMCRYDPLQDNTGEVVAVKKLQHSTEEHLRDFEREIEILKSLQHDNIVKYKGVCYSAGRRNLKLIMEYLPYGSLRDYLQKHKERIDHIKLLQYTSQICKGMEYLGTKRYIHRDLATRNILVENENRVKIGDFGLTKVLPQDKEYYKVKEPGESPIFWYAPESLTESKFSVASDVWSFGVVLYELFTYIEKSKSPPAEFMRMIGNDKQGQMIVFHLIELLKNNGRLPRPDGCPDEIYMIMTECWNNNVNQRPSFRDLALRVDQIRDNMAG

SMILES | Suppression of PKCθ (PKCθ) | Suppression of IKKβ (IKKβ) | IC50 [2] [µM] | Solubility (in words) (Aqueous solubility) | solubility (Aqueous solubility; [12]) [µM] | solubility (Aqueous solubility; [13]) [µM] | solubility (Aqueous solubility; [14]) [µM] | PAMPA Pe, donor pH 5.0 [3] | PAMPA Pe, donor pH 6.2 [3] | PAMPA Pe, donor pH 7.4 [3] | Hepatic microsome stability, human (% remaining) [4] [% remaining] | Hepatic microsome stability, mouse (% remaining) [5] [% remaining] | CC50 [6] [µM] | Selectivity over NF-κB activation in HEK 293T cells [1] [fold] | Selectivity against TNFα-mediated NF-κB activation [11] [fold] | solubility (Aqueous solubility; [15]) [µM] | solubility (Aqueous solubility; [16]) [µM] | also measured
CN[C@@H]1C[C@H]2O[C@@](C)([C@@H]1OC)n1c3ccccc3c3c4c(c5c6ccccc6n2c5c31)C(=O)NC4 [staurosporine, reference compound] | potent inhibition | potent inhibition |  |  |  |  |  |  |  |  |  |  |  |  |  |  |  | 
Cc1cc2nc(NCCCO)n(CC(=O)c3cc(C(C)(C)C)c(O)c(C(C)(C)C)c3)c2cc1C [Probe 4] | failed to suppress | failed to suppress | > 30 | good solubility | 1.1 (≈ 0.512 µg/mL) | 90 (≈ 41.9 µg/mL) | 1.5 (≈ 0.698 µg/mL) | 299 10^−6 cm/s | 710 10^−6 cm/s | 441 10^−6 cm/s | 26 | 0.5 | > 50 |  |  |  |  | Number of kinases inhibited >50% (353 kinases): 3; inhibition at 10 µM (TLK1): 70%; Raf inhibition (Raf): 57%; inhibition at 10 µM (JAK2): 53%; IC50 ([1]; Homo sapiens, HEK 293T cells, read-out: Activity in HEK 293T cell line (NF-κB reporter)): > 30 µM; IC50 [7]: 0.07 µM; Suppression of PKCβ (PKCβ): failed to suppress
Cc1ccc(S(=O)(=O)n2c(N)nc3ccccc32)cc1 [Probe 13] |  |  |  | moderate solubility |  | 7.0 (≈ 2.01 µg/mL) | 7.0 (≈ 2.01 µg/mL) | 491 10^−6 cm/s | 562 10^−6 cm/s | 382 10^−6 cm/s | 41.8 | 0.8 | > 50 |  |  |  |  | Inhibition of NOD1 (γ-tri-DAP) dependent IL-8 secretion [8]: selectively inhibited IL-8 secretion; Inhibition of NOD2-dependent IL-8 secretion [9]: neither inhibited; Inhibition of TNF-α-dependent IL-8 secretion [10]: neither inhibited; solubility (Aqueous solubility; pH 6.2, read-out: Aqueous solubility pH 6.2): 5.9 µM (≈ 1.7 µg/mL)
CCOc1ccc(-c2nc(CSCC(=O)NC3CC3)c(C)o2)cc1 [Probe 12] |  |  | 0.2 | good solubility | 133 (≈ 46.1 µg/mL) |  |  | 513 10^−6 cm/s | 541 10^−6 cm/s | 59 10^−6 cm/s | 22.7 | 0 | > 50 | > 400 | > 400 | 112 (≈ 38.8 µg/mL) | 160 (≈ 55.4 µg/mL) | 
CNC(=O)CCc1nc(-c2ccc(C(C)(C)C)cc2)no1 [Probe 8] |  |  | 0.035 | good solubility | 101 (≈ 29 µg/mL) |  |  | 751 10^−6 cm/s | 755 10^−6 cm/s | 746 10^−6 cm/s | 100 | 4.9 | > 50 | > 400 | > 400 | 92 (≈ 26.4 µg/mL) | 103 (≈ 29.6 µg/mL) | Metabolic stability in human hepatic microsomes (in words) ([4]; one hour of exposure): no apparent instability
